Assay results reported in patent US12690589B2, “Herbicidal compositions comprising pyroxasulfone” (BASF SE, priority 2024, dated 2026).

Experiments:
Assay in all cases: Post-emergence application in field trials, herbicidal activity (damage scale 0 to 100%)
Format in all cases: in vivo
Glycine max (GLXMA) = details: 7 DAT; stage 12-13, height 7-11 cm; g ai/ha A-1 12.5, B 70, C-4 12.5
Method: (§1) In the examples below, using the method of S. R. Colby (1967) “Calculating synergistic and antagonistic responses of herbicide combinations”, Weeds 15, p. 22ff., the value E, which is expected if the activity of the individual active compounds is only additive, was calculated:
(§2) [formula] • wherein • X=percent activity using active herbicide A at an application rate a; • Y=percent activity using active herbicide B (e.g. pyroxasulfone) at an application rate b; • E=expected activity (in %) by A+B at application rates a+b.
(§3) For 3-component mixtures the synergistic response was calculated as described in: Ferry, Nancy; Stanley, Bruce H.; and Armel, Gregory (2005). “DESIGN AND ANALYSIS OF BIOLOGICAL ASSAYS OF MIXTURES,” Conference on Applied Statistics in Agriculture. https://doi.org/10.4148/2475-7772.1133. According to this publication, the Colby calculation can be generalized to a third mixing partner, Z, employing the following formula: […]
(§4) If the value found experimentally is higher than the value E calculated according to Colby, a synergistic effect is present.
(§5) On field test sites, natural weed infestation or seeded weeds were treated post-emergence of the weeds.
(§6) In the field trials, the weeds were treated as indicated below.
(§7) In the following experiments, the herbicidal activity for the individual herbicidal compositions (solo and mixture applications) was assessed at the indicated days after treatment (DAT). The assessments for the damage on undesired weeds caused by the composition was carried out using a scale from 0 to 100%, compared to the untreated control plants. Here, 0 means no damage and 100 means complete destruction of the plants.
(§8) Herbicide A-1 (342 g/l) and pyroxasulfone (500 g/l) were, together with addition of 0.25 v/v % MSO (methylated seed oil) as adjuvant, formulated in 200 l/ha water as distribution medium and sprayed with commercial flat fan nozzles.
(§9) Herbicide A-1 (342 g/l), pyroxasulfone (500 g/l) and trifludimoxazin (500 g/l) were, together with addition of 0.25 v/v % MSO (methylated seed oil) as adjuvant, formulated in 200 l/ha water as distribution medium and sprayed with commercial flat fan nozzles.
(§10) Herbicide A-1 (342 g/I), pyroxasulfone (500 g/l) and glyphosate-isopropylammonium (356 g/l) were, together with addition of 0.25 v/v % MSO (methylated seed oil) as adjuvant, formulated in 200 l/ha water as distribution medium and sprayed with commercial flat fan nozzles.
(§11) Herbicide A-1 (342 g/l), pyroxasulfone (500 g/l) and glufosinate-P-ammonium (211 g/l) were, together with addition of 0.25 v/v % MSO (methylated seed oil) as adjuvant, formulated in 200 l/ha water as distribution medium and sprayed with commercial flat fan nozzles.
(§12) Herbicide A-1 (342 g/l), pyroxasulfone (500 g/l) and 2,4-D-choline (456 g/l) were, together with addition of 0.25 v/v % MSO (methylated seed oil) as adjuvant, formulated in 200 l/ha water as distribution medium and sprayed with commercial flat fan nozzles.

[1] = test system: Amaranthus retroflexus (AMARE); details: stage 31-49, height 10-12 cm
Method: as §1, §2, §3, §4, §5, §6, §7, §8, §9, §10, §11, §12

[2] = test system: Digitaria sanguinalis (DIGSA); details: stage 22, height 10-15 cm
Method: as §1, §2, §3, §4, §5, §6, §7, §8, §9, §10, §11, §12

[3] = test system: Setaria verticillata (SETVE); details: 7 DAT, stage 21-23, height 8-16 cm
Method: as §1, §2, §3, §4, §5, §6, §7, §8, §9, §10, §11, §12

Zea mays (ZEAMX) = details: 7 DAT; stage 15-16, height 27-33 cm; g ai/ha A-1 18, B 90, C-4 12.5
Method: as §1, §2, §3, §4, §5, §6, §7, §8, §9, §10, §11, §12

[4] = 7 DAT, g ai/ha A-1 12.5, B 70, C-4 12.5
[5] = 42 DAT, g ai/ha A-1 12.5, B 70, C-4 12.5
[6] = 42 DAT, g ai/ha A-1 18, B 70, C-4 12.5
[7] = 42 DAT, g ai/ha A-1 18, B 90, C-4 12.5

Row | SMILES | % Herbicidal activity (Glycine max (GLXMA)) [%] | % Herbicidal activity [1, 4] [%] | % Herbicidal activity [1, 5] [%] | % Herbicidal activity [1, 6] [%] | % Herbicidal activity [1, 7] [%] | % Herbicidal activity [2, 4] [%] | % Herbicidal activity ([2]; 7 DAT, g ai/ha A-1 18, B 70, C-4 12.5) [%] | % Herbicidal activity ([2]; 7 DAT, g ai/ha A-1 18, B 90, C-4 12.5) [%] | % Herbicidal activity ([2]; 21 DAT, g ai/ha A-1 12.5, B 70, C-4 12.5) [%] | % Herbicidal activity ([2]; 21 DAT, g ai/ha A-1 18, B 70, C-4 12.5) [%] | % Herbicidal activity ([2]; 21 DAT, g ai/ha A-1 18, B 90, C-4 12.5) [%] | % Herbicidal activity [2, 5] [%] | % Herbicidal activity [2, 6] [%] | % Herbicidal activity [2, 7] [%] | % Herbicidal activity ([3]; g ai/ha A-1 18, B 90, C-4 12.5) [%] | % Herbicidal activity (Zea mays (ZEAMX)) [%] | % Herbicidal activity ([2]; 7 DAT, g ai/ha A-1 18, B 70, C-8 840) [%] | % Herbicidal activity ([2]; 7 DAT, g ai/ha A-1 18, B 90, C-8 840) [%] | % Herbicidal activity ([3]; g ai/ha A-1 18, B 70, C-8 840) [%] | % Herbicidal activity ([3]; g ai/ha A-1 18, B 90, C-8 840) [%]
1 | C#CCN1C(=O)C(F)(F)Oc2cc(F)c(-n3c(=O)n(C)c(=S)n(C)c3=O)cc21 [C-4, trifludimoxazin] | 75 | 80 | 80 | 80 | 80 | 30 | 30 | 30 | 30 | 30 | 30 | 20 | 20 | 20 | 40 | 40 |  |  |  | 
2 | CC(C)N.O=C(O)CNCP(=O)(O)O [C-8, glyphosate-isopropylammonium] |  |  |  |  |  |  |  |  |  |  |  |  |  |  |  |  | 85 | 85 | 75 | 75
